This is an account of results in ChEMBL document CHEMBL1146149, “The development of 2-benzimidazole substituted pyrimidine based inhibitors of lymphocyte specific kinase (Lck)” (Bioorg Med Chem Lett, 2006).

≈ marks a conversion by molar mass, not a printed value.

Data set [1] is described as follows: Loss of metabolic stability in Sprague-Dawley rat hepatocytes after 1 hr at 1 uM. Particulars: read-out: Activity. It counts as ADME, cell-based, Hepatocyte.
The subject of another data set is Jurkat. Description: Inhibition of IL2 production in Jurkat E6-1 T cells by ELISA. The note with it: Homo sapiens. (In general: ELISA stands for enzyme-linked immunosorbent assay.)
A short description of data set [2]: Aqueous solubility at pH 7.4. It counts as physicochemical.
The target of data set [3] is Tyrosine-protein kinase Lck (Homo sapiens, UniProt P06239).
Description: Inhibition of human recombinant Lck by ProFlour assay
The target of data set [4] is Proto-oncogene tyrosine-protein kinase Src (Homo sapiens, UniProt P12931). Briefly: Inhibition of human recombinant Src by ProFlour assay.
Sequence of Proto-oncogene tyrosine-protein kinase Src (P12931 2-536 limits assumed): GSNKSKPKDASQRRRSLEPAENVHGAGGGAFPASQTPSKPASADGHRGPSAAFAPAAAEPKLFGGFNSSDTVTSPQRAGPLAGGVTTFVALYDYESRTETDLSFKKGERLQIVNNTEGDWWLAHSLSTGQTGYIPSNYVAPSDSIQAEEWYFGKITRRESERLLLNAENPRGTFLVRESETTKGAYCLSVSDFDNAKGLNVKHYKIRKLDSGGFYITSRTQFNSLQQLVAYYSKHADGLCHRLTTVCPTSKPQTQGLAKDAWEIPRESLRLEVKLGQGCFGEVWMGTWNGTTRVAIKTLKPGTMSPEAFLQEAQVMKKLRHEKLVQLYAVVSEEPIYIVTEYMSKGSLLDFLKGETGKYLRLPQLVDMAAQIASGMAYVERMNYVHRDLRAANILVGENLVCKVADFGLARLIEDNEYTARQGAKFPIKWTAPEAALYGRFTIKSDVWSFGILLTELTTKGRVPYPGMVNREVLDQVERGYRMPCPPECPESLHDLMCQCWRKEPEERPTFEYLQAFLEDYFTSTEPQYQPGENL

Sequence of Tyrosine-protein kinase Lck (P06239 whole entry): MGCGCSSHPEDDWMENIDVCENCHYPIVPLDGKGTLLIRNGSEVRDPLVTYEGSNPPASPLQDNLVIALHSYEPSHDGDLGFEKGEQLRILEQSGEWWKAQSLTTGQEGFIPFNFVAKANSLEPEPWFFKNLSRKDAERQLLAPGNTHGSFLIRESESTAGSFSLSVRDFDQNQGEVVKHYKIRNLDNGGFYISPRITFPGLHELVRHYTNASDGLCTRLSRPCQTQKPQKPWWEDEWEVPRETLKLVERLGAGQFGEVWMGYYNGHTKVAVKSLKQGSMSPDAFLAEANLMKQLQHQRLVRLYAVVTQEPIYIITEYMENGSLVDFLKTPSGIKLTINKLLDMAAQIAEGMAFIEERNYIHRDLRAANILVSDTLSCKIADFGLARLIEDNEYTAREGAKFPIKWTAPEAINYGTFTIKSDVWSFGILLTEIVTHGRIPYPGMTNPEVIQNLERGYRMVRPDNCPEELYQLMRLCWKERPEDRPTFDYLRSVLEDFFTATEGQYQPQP

In general, IC50 refers to the point on the concentration scale where inhibition reaches its midpoint. The term solubility denotes the dissolved amount per volume that the medium holds. A lower solubility goes with little dissolved substance. On to `Cc1ccc(O)cc1Nc1cc(NCCN2CCN(C)CC2)nc(-n2cnc3ccccc32)n1`, for which the metabolised at 1 h, 1 µM in data set [1] was 39%. In addition, the IC50 in the data set with Jurkat came out at 2280 nM. This compound also gave a solubility in data set [2] of 54 µg/mL (≈ 118 µM).

On to `COc1ccc(C)c(Nc2nccc(-n3cnc4ccccc43)n2)c1`, for which, in data set [3], the IC50 is > 10000 nM.

In the case of `Cc1ccc(O)cc1Nc1cc(CC2CCN(C)CC2)nc(-n2cnc3ccccc32)n1`, the IC50 with Jurkat was determined as 163 nM. This compound also gave a solubility in data set [2] of 40 µg/mL (≈ 93.3 µM).

For the compound `Cc1ccc(O)cc1Nc1cc(N2CCN(C)CC2)nc(-n2cnc3ccccc32)n1`, in data set [2], the solubility is ≤ 0.1 µg/mL.

Take `Cc1ccc(O)cc1Nc1cc(OCCN2CCOCC2)nc(-n2cnc3ccccc32)n1`: the metabolised at 1 h, 1 µM in data set [1] came to 48%. Half-maximal inhibition with Jurkat (IC50) required 54 nM. The compound also displayed a solubility in data set [2] of 3 µg/mL (≈ 6.72 µM).

On to `Cc1ccc(O)cc1Nc1cc(OCCN2CCN(C)CC2)nc(-n2cnc3ccccc32)n1`, for which the metabolised at 1 h, 1 µM in data set [1] was determined as 35%. For the same compound, in the data set on Jurkat, inhibition was half-maximal at 400 nM (IC50). For the same compound, the solubility in data set [2] amounted to 70 µg/mL (≈ 152 µM).

In the case of `Cc1ccc(F)cc1Nc1ccnc(-n2cnc3ccccc32)n1`, the IC50 in data set [3] is > 10000 nM.

Consider `Cc1ccc(O)cc1Nc1cc(-n2cnc3ccccc32)ncn1`, for which the IC50 in data set [3] is > 10000 nM.

Turning to `Cc1ccc(O)cc1Nc1cc(NCCCN(C)C)nc(-n2cnc3ccccc32)n1`, the metabolised at 1 h, 1 µM in data set [1] is 48%. Half-maximal inhibition in the data set with Jurkat (IC50) was put at 2200 nM. In data set [2], this compound registered a solubility of 55 µg/mL (≈ 132 µM).

On to `COc1ccc(C)c(Nc2cc(OCCN3CCOCC3)nc(-n3cnc4ccccc43)n2)c1`, for which half-maximal inhibition with Jurkat (IC50) was put at 1270 nM. For the same compound, the concentration in solution in data set [2] (solubility) was 27 µg/mL (≈ 58.6 µM).

`Oc1cccc(Nc2nccc(-n3cnc4ccccc43)n2)c1`: in data set [3], the IC50 was > 10000 nM.

Take `CCN(CC)CCNc1cc(Nc2cc(O)ccc2C)nc(-n2cnc3ccccc32)n1`: the metabolised at 1 h, 1 µM in data set [1] was 45%. Besides, the values for the IC50 (in the data set with Jurkat; in data set [4]) were 549 nM and 162 nM, respectively. Also, in data set [2], the solubility was 127 µg/mL (≈ 294 µM).
